From patent publication US11603355B2, “Charged ion channel blockers and methods for use” (Nocion Therapeutics, Inc., priority 2019, dated 2023)

Assays:
NaV1.7 [1] = molecular target: T1, NaV1.7 (Homo sapiens, UniProt Q15858); test: Automated patch clamp (Qube 384), internal block of NaV1.7; type: cell-based; details: IC50, compound in internal solution, HEK293 cells, read-out: Nav1.7 Intracellular Inhibition
T1 construct: expressed in transfected cells; host or cells: HEK293 (tetracycline-inducible)
Protocol: (§1) NaV1.7 was expressed in HEK293 cells upon induction with tetracycline. Cells were cultured in DMEM containing 10% dialyzed Fetal Bovine Serum (VWR, Radnor, Pa.), 1% Glutamax (VWR, Radnor, Pa.), 1% Penicillin-Streptomycin (VWR, Radnor, Pa.), 100 mg/L Hygromycin (Thermo Fisher Scientific, Waltham, Mass. and 5 mg/L Blasticidin (Alfa Aesar, Haverhill, Mass.). Cells were grown and maintained at 37° C. in a humidified environment containing 10% CO2 in air. Cells were detached from the culture flask for passage and harvested using 0.05% Trypsin-EDTA (Thermo Fisher Scientific, Waltham, Mass.). To induce NaV1.7, cells were induced with tetracycline (0.1-1 μg/mL, IBI Scientific, Peosta, Iowa) the day before recording.
(§2) Before experiments, cells were washed with DPBS (VWR, Radnor, Pa.), digested with Detachin (VWR Radnor, Pa.) and then triturated 10 times in CHO Serum-Free Media (VWR Radnor, Pa.) to resuspend the cells and to break apart cell aggregates. Cells were counted and the final concentration was set at 2-5 million cells per mL.
(§3) The intracellular solution contained the following: 140 mM CsF, 1 mM/5 mM EGTA/CsOH, 10 mM HEPES, 10 mM NaCl, adjusted to pH 7.3 with CsOH, and osmolality to 320 with OSM solution. The external solution contained the following: 145 mM NaCl, 4 mM KCl, 1 mM MgCl2, 2 mM CaCl2), 10 mM HEPES, 10 mM Glucose, adjusted to pH 7.4 with CsOH and osmolality to 305 with OSM solution. The OSM solution was a normal Ringer solution containing (in mM) NaCl 155, HEPES 10, sucrose, KCl 3.5, CaCl2) 1.5, MgCl2 1 adjusted to pH 7.4 with NaOH. All chemicals are from Sigma-Aldrich, St. Louis, Mo. In order to test the degree of internal block by test compounds, the compounds were dissolved in internal solution at the indicated test concentration. […] In order to test the degree of external block by test compounds the compounds were dissolved in external solution at the indicated test concentration.
(§4) Automated Patch Clamps were performed on Qube 384 (Sophion Bioscience, Woburn Mass.) with multihole Qchips at a temperature setting of 22 degrees. The whole cells configuration was formed with default Qube seal and break-in parameter. The membrane potential was held at −100 mV before the voltage protocol began. Two voltage protocols were followed.
(§5) Step 1: Cells were held at −100 mV with a depolarized pulse to −20 mV for 10 ms, the interval was set at 5 s. Currents were corrected by default leak subtraction from every pulse. The duration was set at 5 mins.
(§6) Step 2: Cells were held at −100 mV with a depolarized pulse to −20 mV for 10 ms. The frequency was 5 Hz. Currents were corrected by leak subtraction calculated before step 2. The duration was set at 4 mins.
After Step 2, the Qchip was removed from the recording chamber. The internal solution was changed with solutions containing test compounds. Qchips were held at −100 mV without pulsing after being replaced in the recording chamber. The total solution switching time was 8 minutes. After the internal solution exchange, Cells were recorded and step 2 for repeated for 10 minutes.
Data analysis was performed by Sophion Analyzer. Cells were filtered with minimum 50 MOhm seal resistance and minimum 5 nA starting current. The rundown of the currents was corrected with control cells (Non-Drug). The remaining was calculated by averaging last 3 points in the end of experiments. The base line was calculated as the average of last 3 points of Step 2.
IC50 curves were plotted with DR-plots/Hill function (a dose-response plot with a Hill fit).
Representative examples of the invention were tested for intracellular inhibition of NaV 1.7 in the automated patch clamp assay. Activity Range is reported as IC50: “++++” (<0.3 μM), “+++” (0.3-1 μM), “++” (1-3 μM) or “+” (3-10 μM).

NaV1.7 [2] = molecular target: T1, NaV1.7; test: Automated patch clamp (Qube 384), external block of NaV1.7; type: cell-based; details: IC50, compound in external solution, HEK293 cells, read-out: Nav1.7 Extracellular Inhibition
Protocol: as §1, §2, §3, §4, §5, §6
After Step 2, the external solution was changed with solutions containing test compounds. Qchips were held at −100 mV without pulsing. The total solution switching time was 8 minutes. After the external solution exchange, cells were recorded using the same procedure as step 2 for 10 minutes.
Data analysis was performed by Sophion Analyzer. Data were corrected with control cells (Non-Drug). The IC50 data were plotted with DR-plots/Hill function (a dose-response plot with a Hill fit). Representative examples of the invention were tested for extracellular inhibition of NaV 1.7 in the automated patch clamp assay. Activity Range is reported as IC50: “++++” ([…], “+++” (1-3 μM), “++” ([…]) or “+” (>10 μM). The results are presented below.

[3] = PAMPA membrane permeability assay; type: in vitro ADME; details: permeability coefficient, pH 7.4 buffer, GIT lipid, 4 hours incubation
How it was run: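 Passive diffusion across a GIT-lipid-painted artificial membrane at pH 7.4, with a 50 uM donor stock diluted from DMSO and a 4 h incubation. UV spectra of the donor, acceptor and reference plates were read, and the permeability coefficient was calculated from the AUCs, in 10^−6 cm/s.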

NaV1.7 [4] = molecular target: T1, NaV1.7; test: Manual patch clamp, internal block of NaV1.7 current; type: cell-based; details: compound in internal solution, HEK293 cells, read-out: Nav1.7 Intracellular Inhibition; for inhibition at 3 µM: % inhibition at 3 μM test concentration; for inhibition at 10 µM: % inhibition at 10 μM test concentration
How it was run: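 Whole-cell recordings at room temperature in tetracycline-induced HEK293 cells, compound in CsCl internal solution (pH 7.2), held at −100 mV with 10 ms steps to −20 mV. Four 30 s 5 Hz trains after 5 min baseline; fraction of peak inward current remaining computed as Itest/Ibaseline.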

NaV1.7 [5] = molecular target: T1, NaV1.7; test: Manual patch clamp, external block of NaV1.7 current; type: cell-based; details: % inhibition at 10 μM test concentration, compound in external solution, HEK293 cells, read-out: Nav1.7 Extracellular Inhibition
Protocol: Representative compounds of the invention were synthesized according to the described methods and tested for the ability to inhibit voltage-gated sodium channels.
as §1, with “recording and plated onto 24-well plates. Cells were washed with DPBS (VWR, Radnor, Pa.), trypsinized and then triturated five times in 10 mL of growth media to break apart cell aggregates. For one 24-well plate, 2 mL of cell suspension was mixed with 23 mL of fresh growth media and 0.1-1 μg/mL tetracycline added. 1 ml of mixed media with cells was then added to each well of a 24-well plate, with a 12 mm coverslip already placed in the bottom of the well. Cells were then incubated in 37° C. and 10% CO2 overnight.” for “recording.”
The intracellular solution contained the following (in mM) CsCl 135, NaCl 10, EGTA 10, HEPES 10, MgCl2 2, adjusted to pH 7.2 with CsOH. The external solution was a normal Ringer solution containing (in mM) NaCl 155, HEPES 10, glucose 10, KCl 3.5, CaCl2 1.5, MgCl2 1 adjusted to pH 7.4 with NaOH. CsCl is from Alfa Aesar, Haverhill, Mass. All other chemicals are from Sigma-Aldrich, St. Louis, Mo. In order to test the degree of internal block by test compounds the compounds were dissolved in internal solution at the indicated test concentration. […] In order to test the degree of external block by test compounds the compounds were dissolved in external solution at the indicated test concentration.
18-24 hours after cells were induced with tetracycline, coverslips were placed into a chamber filled with Normal Ringer solution at room temperature and the chamber placed on a microscope. Pipettes were pulled from borosilicate glass on a P97 puller (Sutter Instrument, Novato, Calif.) and polished with a MF-830 Microforge (Narishige International USA, Inc., Amityville, N.Y.) to have a resistance of 1.5-2.5 MΩ when filled with CsCl internal solution at room temperature. Healthy cells (those that are round and translucent with no visible blemishes) were chosen for seal formation. A seal was formed between the pipette and the cell, and a brief pulse of suction was used to “break in” and establish the whole-cell configuration. The membrane potential was held at −100 mV before the voltage protocol began. Only cells with series resistance between 1.5-5 MΩ were retained for analysis. The voltage protocol was as follows: Cells were held at −100 mV for 12 ms followed by a hyperpolarizing step to −105 mV for 12 ms to monitor the leak. Cells were then stepped back to −100 mV for 40 ms. Cells were then depolarized to −20 mV for 10 ms and then returned to −100 mV for 26 ms.
Once the recording was started, the voltage protocol was run at 30 second intervals for 5 minutes to get a stable baseline. This is followed by 5 Hz stimulation of the same voltage protocol run until the end of experiment. […] The test compound is added for 5 minutes before washing out with normal Ringer's solution. Currents were recorded using PatchMaster software with Heka EPC10 (HEKA Electronics, Lambrecht, Germany). Only cells with inward current amplitudes at −20 mV between 400 pA and 4 nA were accepted. In addition, cells having leak currents greater than 10% of their current amplitudes were discarded. […]

T1 sequence (Q15858 whole entry): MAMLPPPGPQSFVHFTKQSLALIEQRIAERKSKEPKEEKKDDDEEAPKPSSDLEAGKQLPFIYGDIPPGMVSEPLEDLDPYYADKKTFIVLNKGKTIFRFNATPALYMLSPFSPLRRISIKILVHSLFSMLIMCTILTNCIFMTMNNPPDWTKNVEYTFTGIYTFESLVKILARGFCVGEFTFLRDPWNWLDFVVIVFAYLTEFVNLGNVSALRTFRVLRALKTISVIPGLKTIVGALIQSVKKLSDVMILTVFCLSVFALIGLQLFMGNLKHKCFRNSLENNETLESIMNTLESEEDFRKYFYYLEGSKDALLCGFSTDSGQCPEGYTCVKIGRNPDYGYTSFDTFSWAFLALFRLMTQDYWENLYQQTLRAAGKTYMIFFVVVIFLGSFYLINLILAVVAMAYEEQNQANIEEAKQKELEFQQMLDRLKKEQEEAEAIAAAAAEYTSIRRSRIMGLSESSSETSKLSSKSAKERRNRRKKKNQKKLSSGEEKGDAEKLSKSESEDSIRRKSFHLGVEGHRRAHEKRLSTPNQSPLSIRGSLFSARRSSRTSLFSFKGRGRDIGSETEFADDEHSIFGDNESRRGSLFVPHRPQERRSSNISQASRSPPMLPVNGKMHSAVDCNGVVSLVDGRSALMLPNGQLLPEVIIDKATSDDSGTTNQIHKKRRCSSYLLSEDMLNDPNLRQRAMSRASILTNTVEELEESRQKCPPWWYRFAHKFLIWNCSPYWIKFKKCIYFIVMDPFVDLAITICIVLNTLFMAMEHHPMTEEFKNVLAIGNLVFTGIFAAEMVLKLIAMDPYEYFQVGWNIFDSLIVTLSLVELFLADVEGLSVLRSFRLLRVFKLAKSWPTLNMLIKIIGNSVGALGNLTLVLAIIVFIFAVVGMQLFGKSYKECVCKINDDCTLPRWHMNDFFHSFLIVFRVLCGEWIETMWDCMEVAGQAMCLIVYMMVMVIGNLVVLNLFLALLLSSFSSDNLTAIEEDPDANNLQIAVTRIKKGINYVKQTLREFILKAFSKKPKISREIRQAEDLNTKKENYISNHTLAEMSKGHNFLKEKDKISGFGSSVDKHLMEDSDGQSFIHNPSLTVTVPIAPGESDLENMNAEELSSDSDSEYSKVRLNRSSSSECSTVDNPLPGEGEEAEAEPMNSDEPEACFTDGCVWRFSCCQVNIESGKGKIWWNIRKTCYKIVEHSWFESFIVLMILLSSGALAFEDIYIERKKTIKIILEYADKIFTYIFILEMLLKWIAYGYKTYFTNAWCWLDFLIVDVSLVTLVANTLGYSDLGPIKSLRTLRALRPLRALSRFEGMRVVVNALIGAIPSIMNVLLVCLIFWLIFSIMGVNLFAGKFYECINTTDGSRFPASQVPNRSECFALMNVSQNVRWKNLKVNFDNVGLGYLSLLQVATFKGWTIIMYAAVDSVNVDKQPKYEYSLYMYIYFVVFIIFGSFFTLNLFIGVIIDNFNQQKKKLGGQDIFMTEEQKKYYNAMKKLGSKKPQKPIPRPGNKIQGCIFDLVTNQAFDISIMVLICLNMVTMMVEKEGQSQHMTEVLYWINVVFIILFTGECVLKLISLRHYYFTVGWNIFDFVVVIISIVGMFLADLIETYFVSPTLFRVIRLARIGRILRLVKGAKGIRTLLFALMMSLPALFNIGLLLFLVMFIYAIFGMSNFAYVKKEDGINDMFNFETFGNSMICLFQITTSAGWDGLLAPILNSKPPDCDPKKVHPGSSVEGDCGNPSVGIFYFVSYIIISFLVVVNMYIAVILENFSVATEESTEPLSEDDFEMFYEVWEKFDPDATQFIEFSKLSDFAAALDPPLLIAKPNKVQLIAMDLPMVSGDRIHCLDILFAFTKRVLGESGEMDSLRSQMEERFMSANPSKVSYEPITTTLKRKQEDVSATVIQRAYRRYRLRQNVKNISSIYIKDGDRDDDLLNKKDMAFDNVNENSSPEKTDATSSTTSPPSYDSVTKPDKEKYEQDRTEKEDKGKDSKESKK

## Cc1cccc(C)c1NC(=O)C[N+]1(Cc2ccccc2)CCCC(C(=O)NCC(C)C)C1.[Br-] (stereo not drawn) [Compound 58A]
NaV1.7 [1]
  IC50: 1 to 3 µM
NaV1.7 [2]
  IC50: 3 to 10 µM
[3]
  PAMPA (10^−6 cm/s): + (“+” (<0.1 10^−6 cm/s))

## CCC(C(=O)Nc1c(C)cccc1C)[N+]1(Cc2ccccc2)CCCCC1.[Br-] (stereo not drawn) [Compound 6A, 1-benzyl-1-(1-((2,6-dimethylphenyl)amino)-1-oxobutan-2-yl)piperidin-1-ium bromide]
NaV1.7 [4]
  inhibition at 3 µM: 70 to 90%
  inhibition at 10 µM: 70 to 95%
[3]
  PAMPA (10^−6 cm/s): + (“+” (<0.1 10^−6 cm/s))
NaV1.7 [5]
  inhibition at 10 µM: < 40%

## CCc1cccc(C)c1NC(=O)C[N+]1(Cc2ccccc2)CCCCCC1 [Compound 70A]
NaV1.7 [1]
  IC50: 0.3 to 1 µM
NaV1.7 [4]
  inhibition at 3 µM: > 90%
NaV1.7 [5]
  inhibition at 10 µM: 40 to 70%

## Cc1cccc(C)c1NC(=O)C[N+]1(Cc2ccccc2)CCCC(C(=O)N2CCCCCC2)C1 (stereo not drawn) [Compound 64A]
NaV1.7 [1]
  IC50: 1 to 3 µM
NaV1.7 [2]
  IC50: 3 to 10 µM
[3]
  PAMPA (10^−6 cm/s): + (“+” (<0.1 10^−6 cm/s))

## CCC(C(=O)Nc1c(C)cccc1C)[N+]1(Cc2ccccc2F)CCCCC1 (stereo not drawn) [Compound 9A]
NaV1.7 [4]
  inhibition at 3 µM: 70 to 90%
  inhibition at 10 µM: > 95%
[3]
  PAMPA (10^−6 cm/s): + (“+” (<0.1 10^−6 cm/s))
NaV1.7 [5]
  inhibition at 10 µM: < 40%

## Cc1cccc(C)c1NC(=O)C[N+]1(Cc2ccccc2)CCCCCC1.[Br-] [Compound 3A, 1-benzyl-1-(2-((2,6-dimethylphenyl)amino)-2-oxoethyl) azepan-1-ium bromide]
NaV1.7 [4]
  inhibition at 3 µM: > 90%
  inhibition at 10 µM: > 95%
[3]
  PAMPA (10^−6 cm/s): + (“+” (<0.1 10^−6 cm/s))
NaV1.7 [5]
  inhibition at 10 µM: 40 to 70%

## Cc1cccc(C)c1S(=O)(=O)CC[N+]1(Cc2ccccc2)CCCCCC1 [Compound 88A, 1-benzyl-1-(2-((2,6-dimethylphenyl)sulfonyl)ethyl) azepan-1-ium bromide]
NaV1.7 [1]
  IC50: 3 to 10 µM
NaV1.7 [2]
  IC50: > 10 µM

## Cc1cccc(C)c1NC(=O)C[N+]1(Cc2ccccc2)CCCC(C(=O)OC2CCCCC2)C1.[Br-] (stereo not drawn) [Compound 51A]
NaV1.7 [1]
  IC50: 3 to 10 µM
NaV1.7 [2]
  IC50: 3 to 10 µM
[3]
  PAMPA (10^−6 cm/s): + (“+” (<0.1 10^−6 cm/s))

## CC[N+](CC)(CCS(=O)(=O)c1c(C)cccc1C)Cc1ccccc1 [Compound 87A, N-benzyl-2-((2,6-dimethylphenyl)sulfonyl)-N, N-diethylethan-1-aminium bromide]
NaV1.7 [1]
  IC50: 3 to 10 µM
NaV1.7 [2]
  IC50: > 10 µM

## CCC(C(=O)Nc1c(C)cccc1C)[N+]1(Cc2ccccc2)CCCCC1 (stereo not drawn) [Compound 6]
NaV1.7 [1]
  IC50: 0.3 to 1 µM
NaV1.7 [2]
  IC50: > 10 µM

## Cc1cccc(C)c1OC(=O)C[N+]1(Cc2ccccc2)CCCCCC1 [Compound 83A, 1-benzyl-1-(2-(2,6-dimethylphenoxy)-2-oxoethyl) azepan-1-ium 2,2,2-trifluoroacetate]
NaV1.7 [1]
  IC50: 0.3 to 1 µM
NaV1.7 [2]
  IC50: 1 to 3 µM

## Cc1cccc(C)c1NC(=O)C[N+]1(Cc2ccccc2)CCCCC1 [Compound 4]
NaV1.7 [1]
  IC50: 0.3 to 1 µM
NaV1.7 [2]
  IC50: > 10 µM

## Cc1cccc(C)c1NC(=O)C[N+]1(Cc2ccccc2)CCCC1 [Compound 5]
NaV1.7 [1]
  IC50: 1 to 3 µM
NaV1.7 [2]
  IC50: > 10 µM

## Cc1cccc(C)c1NC(=O)C[N+]1(Cc2ccccc2)CCCCC1 [Compound 4A, 1-benzyl-1-(2-((2,6-dimethylphenyl)amino)-2-oxoethyl)piperidin-1-ium bromide]
NaV1.7 [4]
  inhibition at 3 µM: 70 to 90%
  inhibition at 10 µM: 70 to 95%
NaV1.7 [5]
  inhibition at 10 µM: < 40%

## Br.CCCCOC(=O)C1CCC[N+](CC(=O)Nc2c(C)cccc2C)(Cc2ccccc2)C1 (stereo not drawn) [Compound 49A]
NaV1.7 [1]
  IC50: 1 to 3 µM
NaV1.7 [2]
  IC50: 3 to 10 µM
[3]
  PAMPA (10^−6 cm/s): + (“+” (<0.1 10^−6 cm/s))
